Measurements from patent US12544357B2, “Compositions and methods for the treatment of Plasmodium falciparum malaria” (priority 2021, dated 2026).
Like-named read-outs stand apart in the source and are kept apart here.

Key:
[1] = system: P. falciparum strain 3D7 parasites; assay: parasite killing assay, P. falciparum 3D7, pLDH readout; format: cell-based, Plasmodium falciparum; details: ring stage
Experimental: P. falciparum strain 3D7 parasites were synchronized to the ring stage and incubated with a dilution series of compound or media control for 48 hours followed by quantification of parasitemia by Plasmodium lactate dehydrogenase assay (pLDH) assay.
(§1) P. falciparum strain 3D7 (Panels A and C) or 3D7 PfGARP KO (Panel B) parasites were synchronized to the ring stage and incubated with a dilution series of compound or media control for 48 hours followed by quantification of parasitemia by pLDH assay.
(§2) A limited structure-activity relationship (SAR) study was then conducted, evaluating 48 analog compounds having the same backbone (black in FIG. 3 inset and FIG. 4), but varying R groups (red) using P. falciparum strain 3D7 and 3D7 PfGARP KO parasites. For the SAR study, 3D7 or 3D7 PfGARP KO parasites were synchronized to the ring stage and incubated with a dilution series of compounds or media control for 48 hours followed by quantification of parasitemia by Plasmodium lactate dehydrogenase assay (pLDH) assay.^30 Each dilution was evaluated in quadruplicate. In all experiments, DMSO concentration was <0.1%.
The small molecule compounds shown in FIG. 4 were tested for their abilities to kill P. falciparum strain 3D7 parasites.

PfGARP-A = PfGARP-A (Plasmodium falciparum, UniProt Q9U0N1); assay: surface plasmon resonance (SPR) binding on BiaCore100
Sequence of PfGARP-A (Q9U0N1 entry or part of it): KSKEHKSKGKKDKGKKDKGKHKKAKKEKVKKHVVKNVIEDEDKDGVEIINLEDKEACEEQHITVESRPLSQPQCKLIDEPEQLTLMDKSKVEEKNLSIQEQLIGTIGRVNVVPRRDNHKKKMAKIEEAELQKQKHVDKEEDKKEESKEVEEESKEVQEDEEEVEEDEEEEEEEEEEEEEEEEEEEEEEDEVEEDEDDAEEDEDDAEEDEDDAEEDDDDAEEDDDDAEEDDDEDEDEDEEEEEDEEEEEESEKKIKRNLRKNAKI
Text: Drugs were immobilized to a CM5 sensorchip and probed with varying concentrations of full length PfGARP on a BiaCore100.
PfGARP-A was immobilized to a sensorchip and probed with varying concentrations of drug on a BiaCore100.

[2] = system: P. falciparum 3D7 strain parasites; assay: NSG/P. falciparum humanized mouse model, 3D7; format: in vivo, Plasmodium falciparum; details: 100 mg/kg IP every 8 hours for 4 days, Pf3D7
Experimental: Drugs were evaluated in the NSG/P. falciparum humanized mouse model. Mice were reconstituted with human RBC, infected with P. falciparum 3D7 strain parasites and treated with drug or vehicle control (100 mg/kg dosed IP every 8 hours for 4 days). Parasitemia was monitored by microscopy. Results representative of two independent experiments.
The NSG mouse (NOD scid gamma mouse) is a brand of immunodeficient laboratory mice, which carries the strain non-obese diabetic (NOD). The efficacy of both lead compounds ID #9081579 and ID #9078424 were evaluated in the NSG/P. falciparum humanized mouse model.^32,33,34,35
Briefly, NSG mice (NOD.Cg-Prkdc^scidII2rg^tm1Wjl/SzJ; JAX Cat #005557) were reconstituted with human RBC (huRBC) by daily IP injections with 1 mL of huRBC at 50% hematocrit. On day 12, mice were infected with of 2×10^7 Pf3D7 infected huRBCs via tail vein injection. On day 15, mice were injected IP with ID #9081579 or ID #9078424 at 100 mg/kg final dose (approximately 2 mg per mouse in 5% DMSO/95% PEG400 vehicle) or vehicle alone. Mice were treated with drug or vehicle control every 8 hours for 4 days. This dose and schedule was designed to maintain plasma drug levels above 50 μM, as informed by our single dose PK study in Example 5.

P. falciparum parasites = assay: parasite apoptosis assays (JC-1, TUNEL, ApoStat staining); format: cell-based, Plasmodium falciparum
Experimental: (§3) To assess the morphological effects of compound ID #9081579, 3D7 or 3D7 PfGARP KO parasites were synchronized to the ring stage and incubated with 100 μM 9081579 or vehicle control for 48 hours. […] This induction of apoptosis is further supported by caspase activation and mitochondrial depolarization assays induced by compounds ID #9081579 and ID #9078424 (see FIG. 7).

PfGARP (aa 377-560) = target: T1, PfGARP (aa 377-560) (Plasmodium falciparum, UniProt P13816); assay: 1H-15N HSQC binding signature
T1 construct: made in house
T1 sequence (P13816 377-560): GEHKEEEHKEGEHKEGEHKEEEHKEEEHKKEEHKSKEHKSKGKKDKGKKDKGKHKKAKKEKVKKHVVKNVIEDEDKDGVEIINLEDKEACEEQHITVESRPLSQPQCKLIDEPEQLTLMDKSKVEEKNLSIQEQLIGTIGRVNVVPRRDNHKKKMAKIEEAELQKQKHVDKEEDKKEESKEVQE
Experimental: Spectra were collected on a 600 MHz Bruker spectrometer at 17° C. from samples with PfGARP (aa 377-560) alone (Red), or in complex with ID #9078424 (Blue).
Two-dimension (2D) heteronuclear single quantum coherence (HSQC) spectroscopy was used to characterize the binding of ID #9078424 to PfGARP.
Using a series of recombinant PfGARP fragments, ^1H-^15N HSQC experiments were performed using PfGARP with and without ID #9078424. These experiments confirmed predictions that PfGARP was largely an intrinsically disordered protein.

3D7 PfGARP KO parasites [3] = assay: parasite killing assay, 3D7 PfGARP KO, pLDH readout; format: cell-based, Plasmodium falciparum; details: 48 hours
Experimental: as §1, §2

strain INDO = assay: parasite killing in chloroquine and quinine resistant strain INDO; format: cell-based; details: Plasmodium falciparum
BeWo cells = assay: BeWo crystal violet viability assay; format: cell-based, human
Experimental: BeWo, a human choriocarcinoma cell line, were grown in the presence of increasing concentrations of ID #9081579 or vehicle alone and cell concentration was measured using a crystal violet viability assay performed 48 hours after addition of drug. Points represent the mean of three independent technical replicates. Bars represent SD.
BeWo cells are a human placental cell line that originates from a choriocarcinoma.^31 These cells have been used widely as an in vitro model to study placental uptake of a variety of nutrients including glucose, amino acids, and iron. BeWo choriocarcinoma cells were grown in the presence of increasing concentrations of compound ID #9081579 or vehicle alone. Cell concentration was measured using a crystal violet viability assay performed 48 hours after addition of drug.

Human WBC (CD45+) = assay: human WBC viability by 7AAD/annexin V flow cytometry; format: cell-based
Experimental: Cells were stained with 7AAD and annexin V and analyzed by flow cytometry to assess viability (7AAD−, annexin V−), necrosis (7AAD+, annexin V−), early apoptosis (7AAD−, annexin V+), and late apoptosis (7AAD+, annexin V+).
Human WBC (CD45+) were incubated in the presence of increasing concentrations of compound ID #9081579 or vehicle alone for 48 hours. Cells were stained with 7AAD and annexin V and analyzed by flow cytometry to assess viability (7AAD−, annexin V−), necrosis (7AAD+, annexin V−), early apoptosis (7AAD−, annexin V+), and late apoptosis (7AAD+, annexin V+).

[4] = system: P. falciparum 3D7^0087/N9 strain parasites; assay: NSG/P. falciparum humanized mouse model, adapted strain; format: in vivo, Plasmodium falciparum; details: 100 mg/kg IP every 8 hours for 4 days, adapted strain 3D70087/N9
Experimental: ID #9081579 was evaluated in the NSG/P. falciparum humanized mouse model. Mice were reconstituted with human RBC, infected with P. falciparum 3D7^0087/N9 strain parasites and treated with drug or vehicle control (100 mg/kg dosed IP every 8 hours for 4 days). Parasitemia was monitored by microscopy.
Just prior to submission, we have repeated this experiment using ID #9081579 and an adapted parasite strain (3D70087/N9).

3D7 parasites = assay: morphological effects on 3D7 parasites; format: cell-based, Plasmodium falciparum; details: 100 μM, 48 hours
Experimental: (§4) FIG. 6 illustrates the morphological changes that occur when compound ID #9081579 activates parasite apoptosis in P. falciparum strain 3D7 (Panel C), or 3D7 PfGARP KO (Panel B) incubated with 100 μM ID #9081579 (Panels A-B) or vehicle control (Panel A) for 48 hours.
as §3

3D7 PfGARP KO parasites [5] = assay: morphological effects on 3D7 PfGARP KO parasites; format: cell-based, Plasmodium falciparum; details: 100 μM, 48 hours
Experimental: as §4, §3

[6] = system: P. falciparum 3D7 strain parasites; details: artesunate at 50 and 100 mg/kg, literature ref 36; cited from earlier work
[7] = FIG. 8 legend: drugs immobilized to CM5 sensorchip
[8] = PfGARP-A immobilized to sensorchip, probed with drug
[9] = increasing concentrations, 48 hours

Compound | IC50 ([1]; 48 hours, read-out: IC50) [µM] | also measured
COc1ccc(N(C(C)C(=O)Nc2ccc3c(c2)OCCO3)S(C)(=O)=O)cc1 (stereo not drawn) [ID #7123771] | > 10000 | –
CNC(=O)CN(c1ccc2c(c1)OCCO2)S(C)(=O)=O [ID #7626390] | > 10000 | –
CS(=O)(=O)N(CC(=O)N1CCCCCC1)c1ccc2c(c1)OCCO2 [ID #7627706] | 143 | –
CS(=O)(=O)N(CC(=O)N1CCCC1)c1ccc2c(c1)OCCO2 [ID #7639273] | > 10000 | –
CS(=O)(=O)N(CC(=O)N1CCOCC1)c1ccc2c(c1)OCCO2 [ID #7641147] | 355 | –
CC(C(=O)N1CCN(C)CC1)N(c1ccc2c(c1)OCCO2)S(C)(=O)=O (stereo not drawn) [ID #9072406] | 412 | –
Cc1ccccc1NC(=O)C(C)N(c1ccc2c(c1)OCCO2)S(C)(=O)=O (stereo not drawn) [ID #9072806] | 85.3 | –
CC(C(=O)NC1CCCC1)N(c1ccc2c(c1)OCCO2)S(C)(=O)=O (stereo not drawn) [ID #9074663] | 235 | –
CC(C(=O)N1CCOCC1)N(c1ccc2c(c1)OCCO2)S(C)(=O)=O (stereo not drawn) [ID #9075078] | > 10000 | –
CC(C(N)=O)N(c1ccc2c(c1)OCCO2)S(C)(=O)=O (stereo not drawn) [ID #9076661] | 132 | –
CCOc1ccccc1NC(=O)C(C)N(c1ccc2c(c1)OCCO2)S(C)(=O)=O (stereo not drawn) [ID #9077487] | 49.6 | –
CC(C(=O)Nc1ccccc1Cl)N(c1ccc2c(c1)OCCO2)S(C)(=O)=O (stereo not drawn) [ID #9078424] | 4.39 | IC50 ([1]; 48 hours): 4.4 µM; SPR kinetics (PfGARP-A; [7]): fast on, slow off kinetics; SPR kinetics (PfGARP-A; [8]): fast on/off kinetics; parasitemia [2]: no detectible parasitemia after three days of drug treatment; parasite apoptosis (JC-1, TUNEL, ApoStat staining) (P. falciparum parasites): activate parasite apoptosis; binding to PfGARP fragment aa 377-560 (PfGARP (aa 377-560)): specific drug binding
CC(C(=O)N1CCCC1)N(c1ccc2c(c1)OCCO2)S(C)(=O)=O (stereo not drawn) [ID #9080993] | > 10000 | –
CSc1cccc(NC(=O)C(C)N(c2ccc3c(c2)OCCO3)S(C)(=O)=O)c1 (stereo not drawn) [ID #9081579] | 1.88 | IC50 ([1]; Plasmodium falciparum, 3D7, 48 h, read-out: IC50): 1.8 to 4.8 µM; parasite killing activity in PfGARP KO parasites (3D7 PfGARP KO parasites [3]): no activity; IC50 (strain INDO): 5 to 8 µM; SPR kinetics (PfGARP-A; [7]): fast on, slow off kinetics; SPR kinetics (PfGARP-A; [8]): fast on/off kinetics; highest non-toxic concentration relative to IC50 for parasites (BeWo cells; BeWo cells): 50 fold; concentration causing loss of viability (no loss up to highest concentration tested) (BeWo cells; BeWo cells, 48 hours, crystal violet): > 200 µM; growth of BeWo cells (BeWo cells; [9]): does not inhibit the growth of BeWo cells; highest non-toxic concentration relative to IC50 for parasites (Human WBC (CD45+); human WBC (CD45+)): 100 fold; concentration causing loss of viability (no loss up to highest concentration tested) (Human WBC (CD45+); human WBC (CD45+), 48 hours): > 400 µM; cytotoxicity to human white blood cells (Human WBC (CD45+); [9]): not cytotoxic; parasitemia [2]: no detectible parasitemia after three days of drug treatment; parasitemia [4]: rapidly eliminated parasitemia; morphological changes (3D7 parasites): dysmorphic, shrunken features with pyknotic nuclei; morphological changes (3D7 PfGARP KO parasites [5]): not observed; parasite apoptosis (JC-1, TUNEL, ApoStat staining) (P. falciparum parasites): activate parasite apoptosis
CC(C(=O)N1CCCCC1)N(c1ccc2c(c1)OCCO2)S(C)(=O)=O (stereo not drawn) [ID #9082855] | 70.3 | –
CC(C(=O)N(C)C)N(c1ccc2c(c1)OCCO2)S(C)(=O)=O (stereo not drawn) [ID #9082916] | 509 | –
CC(C(=O)Nc1ccccc1)N(c1ccc2c(c1)OCCO2)S(C)(=O)=O (stereo not drawn) [ID #9083000] | 182 | –
Cc1cccc(NC(=O)C(C)N(c2ccc3c(c2)OCCO3)S(C)(=O)=O)c1 (stereo not drawn) [ID #9083036] | 80.8 | –
CC(C(=O)NC1CC1)N(c1ccc2c(c1)OCCO2)S(C)(=O)=O (stereo not drawn) [ID #9083268] | 387 | –
CC(C(=O)NC1CCCCC1)N(c1ccc2c(c1)OCCO2)S(C)(=O)=O (stereo not drawn) [ID #9083607] | 160 | –
CC(C(=O)NC1CCCCCC1)N(c1ccc2c(c1)OCCO2)S(C)(=O)=O (stereo not drawn) [ID #9083885] | 57.2 | –
CC1CCN(C(=O)C(C)N(c2ccc3c(c2)OCCO3)S(C)(=O)=O)CC1 (stereo not drawn) [ID #9084012] | 80.2 | –
COc1ccccc1NC(=O)C(C)N(c1ccc2c(c1)OCCO2)S(C)(=O)=O (stereo not drawn) [ID #9084682] | > 10000 | –
Cc1cccc(C)c1NC(=O)C(C)N(c1ccc2c(c1)OCCO2)S(C)(=O)=O (stereo not drawn) [ID #9084931] | 68.5 | –
CC(C(=O)NC1CC2CCC1C2)N(c1ccc2c(c1)OCCO2)S(C)(=O)=O (stereo not drawn) [ID #9085023] | 46.8 | –
COc1cccc(NC(=O)C(C)N(c2ccc3c(c2)OCCO3)S(C)(=O)=O)c1 (stereo not drawn) [ID #9085101] | > 10000 | –
CN(C)CCNC(=O)CN(c1ccc2c(c1)OCCO2)S(C)(=O)=O [ID #9134158] | 134 | –
CS(=O)(=O)N(CC(=O)NCCCN1CCCC1)c1ccc2c(c1)OCCO2 [ID #9146302] | 124 | –
C[C@H]1[C@H](OC(=O)CCC(=O)O)O[C@@H]2O[C@@]3(C)CC[C@H]4[C@H](C)CC[C@@H]1[C@@]24OO3 [artesunate] | – | parasite clearance [6]: rapid clearance
